{"source": "patent US8551986B2", "about": "“Treatment of sequelae of psychiatric disorders” (The McLean Hospital Corporation, priority 2005, dated 2013)", "origin": "cited, not measured here", "details": "human studies, all but one study; cited from earlier work", "data": [{"smiles": "C=C1CC[C@@]2(O)[C@H]3Cc4ccc(O)c5c4[C@@]2(CCN3CC2CC2)[C@H]1O5", "note": "[nalmefene]", "values": [{"measurement": "caloric intake", "value": "significant decreases"}]}, {"smiles": "O=C1CC[C@@]2(O)[C@H]3Cc4ccc(O)c5c4[C@@]2(CCN3CC2CC2)[C@H]1O5", "note": "[naltrexone]", "values": [{"measurement": "caloric intake", "value": "significant decreases"}]}]}
